Assay results taken from article PMC4449006, “Targeting KRAS Oncogene in Colon Cancer Cells with 7-Carboxylate Indolo[3,2-b]quinoline Tri-Alkylamine Derivatives” (PLoS ONE, 2015).
pIC50: −log10 of the molar value.

Experiments:
HEK293T cells = assay: MTS short-term cytotoxicity assay (72 h), HEK293T; assay type: cell-based, human; settings: MTS
Protocol: The short-term effect of compounds at 72 h on cell growth was studied using colorectal carcinoma cell lines with different KRAS and TP53 genotypes: human colorectal carcinoma HCT116 (mut Kras, wild-type (wt) p53), and human metastatic colorectal adenocarcinoma SW620 (mut Kras, mut p53). In parallel, we also used the immortalized human embryonic kidney cell line HEK293T (wt Kras, wt p53) and normal human colon fibroblast cells CCD18co (wt Kras, wt p53).
SW620 human colorectal adenocarcinoma cells (European Collection of Cell Cultures, ECACC, Porton Down, Wiltshire, UK), HEK293T human embryonic kidney cells (ATCC, LGC Standards, UK) HCT116 human colon carcinoma cells (ECACC), HCT116 p53(+/+) and p53(−/−) isogenic human colon cancer cells (GRCF Cell Center and Biorepository, the Johns Hopkins University, School of Medicine, Baltimore, MD, USA), were grown in Dulbecco’s modified Eagle’s medium (DMEM) supplemented with 10% fetal bovine serum, and 1% antibiotic/antimycotic (Invitrogen, Grand Island, NY, USA), CCD18co human colon fibroblasts (ATCC, CRL-1459) were grown in Minimum Essential Medium (MEM) supplemented with 10% fetal bovine serum, 1% antibiotic/antimycotic, 2 mM GlutaMAX, 0,1 mM Non-essential amino acids (NEAA) (Invitrogen) and […] Recombinant Human TNF-α (Peprotech, USA) and maintained at 37°C in a humidified atmosphere of 5% CO2.
Cell viability was evaluated by the tetrazolium dye (MTS) Short-Term Cytotoxicity Assay. […] Following 72 h of compound exposure, cell viability was evaluated using the CellTiter 96 AQueous Non-Radioactive Cell Proliferation Assay (Promega, Madison, WI, USA), using 3-(4,5-dimethylthiazol-2-yl)-5-(3-carboxymethoxyphenyl)-2-(4-sulfophenyl)-2H-tetrazolium, inner salt (MTS) as previously described [35]. Cell viability data were expressed as mean ±SD from at least three independent experiments. IC50 and IC65 values were determined using GaphPad Prism v.5.00 (GraphPad Software). In selected experiments, cell viability was also assessed by trypan blue exclusion assay, and general cell death by LDH activity from cell culture supernatants.

HCT116 cells [1] = assay: Hoechst staining and Guava Nexin assay, HCT116; assay type: cell-based, human; settings: HCT116, 72 h, IC50 concentrations
Protocol: To further validate the effect of the IQ3A compounds on the induction of apoptosis in HCT116 cells, apoptosis was ascertained by evaluating changes in nuclear morphology by Hoechst staining, and also by the Nexin assay, following 72 h of incubation with IQ3A compounds at the IC50 concentrations. […] The p53 protein plays a central and pivotal role in human cancers, having a potent tumor suppressive activity via pleiotropic mechanisms. Therefore, the steady-state levels of p53 protein were evaluated by immunoblotting, following 72 h of incubation with IQ3A compounds at the IC50 concentrations, to ascertain their involvement on the mechanism of apoptosis elicited by IQ3A. […] In SW620 cells, no significant increase in p53 steady-state expression was detected, possibly due to the mutant status of p53 (Fig 5A, middle panel). […]
Fig 4 Exposure to IQ3A compounds increases apoptosis in HCT116 cells. […] Results are expressed as the mean percentage (%) of early (LR quadrant) and late (UR quadrant) apoptotic cells.
The Nexin Assay distinguishes viable, early and late apoptotic cells based on the externalization of phosphatidylserine to the cell surface, where Annexin V can readily bind them. […]

HCT116 cells [2] = tested on: HCT116 cells; parameters: method as in PMID 23960016; settings: HCT116 vs primary rat hepatocytes; cited from earlier work

CCN(CC)CCOC(=O)c1ccc2c(c1)c1nc3ccccc3c(OCCN(CC)CC)c1n2CCN(CC)CC [1a]
pIC50 (HEK293T cells; Homo sapiens, HEK-293T, standard errors ≤ 0.1, read-out: HEK293T IC50): 5.49
HEK293T IC65 (HEK293T cells; standard errors ≤ 0.1): 6.06 µM
induction of apoptosis (HCT116 cells [1]): marked increase in apoptosis compared to vehicle
Selective growth inhibition of KRAS mutant HCT116 cells compared to primary rat hepatocytes (HCT116 cells [2]): 100 fold
